# Assay results reported in ChEMBL document CHEMBL5226286, “The application of isatin-based multicomponent-reactions in the quest for new bioactive and druglike molecules” (Eur J Med Chem, 2021).
# pIC50: −log10 of the molar value.
# Legend:
# [1] = tested on: Candida tropicalis; assay: Antifungal activity against Candida tropicalis; assay type: functional
# [2] = tested on: Nakaseomyces glabratus; assay: Antifungal activity against Candida glabrata; assay type: functional
# [3] = tested on: Candida albicans; assay: Antifungal activity against Candida albicans; assay type: functional
# [4] = tested on: K562; assay: Anticancer activity against human K562 cells by MTT assay; assay type: functional, cell-based
# [5] = tested on: A549; assay: Anticancer activity against human A549 cells by MTT assay; assay type: functional, cell-based
# [6] = tested on: Aspergillus niger; assay: Antifungal activity against Aspergillus niger assessed as zone of inhibition at 25 ug/ml; assay type: functional; conditions: read-out: DIZ
# [7] = tested on: Candida metapsilosis; assay: Antifungal activity against Candida metapsilosis assessed as zone of inhibition at 25 ug/ml; assay type: functional; conditions: Lodderomyces metapsilosis, read-out: DIZ
# [8] = tested on: HeLa; assay: Cytotoxicity against human HeLa cells incubated for 48 hrs by MTT assay; assay type: functional, cell-based
# [9] = tested on: DU-145; assay: Cytotoxicity against human DU-145 cells incubated for 48 hrs by MTT assay; assay type: functional, cell-based; conditions: DU-145, 48 h
# [10] = tested on: MCF7; assay: Cytotoxicity against human MCF7 cells incubated for 48 hrs by MTT assay; assay type: functional, cell-based; conditions: MCF7, 48 h
# [11] = tested on: A549; assay: Cytotoxicity against human A549 cells incubated for 48 hrs by MTT assay; assay type: functional, cell-based; conditions: A549, 48 h
# [12] = tested on: PC-3; assay: Antiproliferative activity against human PC-3 cells; assay type: functional, cell-based
# [13] = tested on: LNCaP; assay: Antiproliferative activity against human LNCaP cells; assay type: functional, cell-based
# [14] = tested on: Escherichia coli; assay: Antibacterial activity against Escherichia coli assessed as zone of inhibition; assay type: functional
# [15] = tested on: Staphylococcus aureus; assay: Antibacterial activity against Staphylococcus aureus assessed as zone of inhibition; assay type: functional
# [16] = tested on: Escherichia coli; assay: Antibacterial activity against Escherichia coli by disc diffusion method; assay type: functional
# [17] = tested on: Bacillus subtilis; assay: Antibacterial activity against Bacillus subtilis by agar well diffusion method; assay type: functional
# [18] = tested on: Pseudomonas aeruginosa; assay: Antibacterial activity against multidrug resistant Pseudomonas aeruginosa 034; assay type: functional
# [19] = tested on: Staphylococcus aureus; assay: Antibacterial activity against Staphylococcus aureus by disc diffusion method; assay type: functional
# [20] = tested on: Pseudomonas aeruginosa; assay: Antibacterial activity against multidrug resistant Pseudomonas aeruginosa 025; assay type: functional
# [21] = tested on: Bacillus subtilis; assay: Antibacterial activity against Bacillus subtilis; assay type: functional
# [22] = tested on: Staphylococcus aureus; assay: microbe, parasite or virus in culture
# [23] = tested on: SMMC-7721; assay: Antiproliferative activity against human SMMC-7721 cells; assay type: functional, cell-based
# [24] = tested on: MGC-803; assay: Antiproliferative activity against human MGC-803 cells; assay type: functional, cell-based
# [25] = tested on: ECa-109 cell line; assay: Antiproliferative activity against human EC109 cells; assay type: functional, cell-based
# [26] = target: Acetylcholinesterase (Homo sapiens, UniProt P22303); assay: Inhibition of AChE (unknown origin)
# Chain of Acetylcholinesterase (P22303 whole entry): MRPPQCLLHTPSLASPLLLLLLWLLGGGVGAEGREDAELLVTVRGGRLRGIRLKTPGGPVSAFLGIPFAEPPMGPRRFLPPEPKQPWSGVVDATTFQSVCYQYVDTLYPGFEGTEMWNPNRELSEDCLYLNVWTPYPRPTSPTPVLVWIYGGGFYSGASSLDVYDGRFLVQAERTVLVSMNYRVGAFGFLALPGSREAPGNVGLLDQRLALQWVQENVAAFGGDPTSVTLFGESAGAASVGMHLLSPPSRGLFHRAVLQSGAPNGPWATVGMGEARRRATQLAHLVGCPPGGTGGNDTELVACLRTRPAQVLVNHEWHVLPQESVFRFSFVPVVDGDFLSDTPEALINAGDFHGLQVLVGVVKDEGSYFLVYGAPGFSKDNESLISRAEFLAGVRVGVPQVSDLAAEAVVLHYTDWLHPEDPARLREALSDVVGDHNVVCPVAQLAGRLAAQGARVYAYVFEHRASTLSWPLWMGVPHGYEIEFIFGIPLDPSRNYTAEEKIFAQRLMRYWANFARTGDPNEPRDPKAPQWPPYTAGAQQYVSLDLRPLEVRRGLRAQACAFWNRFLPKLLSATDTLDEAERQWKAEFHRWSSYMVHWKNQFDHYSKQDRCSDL
# [27] = target: Cholinesterase (Homo sapiens, UniProt P06276); assay: Inhibition of BChE (unknown origin)
# Chain of Cholinesterase (P06276 whole entry): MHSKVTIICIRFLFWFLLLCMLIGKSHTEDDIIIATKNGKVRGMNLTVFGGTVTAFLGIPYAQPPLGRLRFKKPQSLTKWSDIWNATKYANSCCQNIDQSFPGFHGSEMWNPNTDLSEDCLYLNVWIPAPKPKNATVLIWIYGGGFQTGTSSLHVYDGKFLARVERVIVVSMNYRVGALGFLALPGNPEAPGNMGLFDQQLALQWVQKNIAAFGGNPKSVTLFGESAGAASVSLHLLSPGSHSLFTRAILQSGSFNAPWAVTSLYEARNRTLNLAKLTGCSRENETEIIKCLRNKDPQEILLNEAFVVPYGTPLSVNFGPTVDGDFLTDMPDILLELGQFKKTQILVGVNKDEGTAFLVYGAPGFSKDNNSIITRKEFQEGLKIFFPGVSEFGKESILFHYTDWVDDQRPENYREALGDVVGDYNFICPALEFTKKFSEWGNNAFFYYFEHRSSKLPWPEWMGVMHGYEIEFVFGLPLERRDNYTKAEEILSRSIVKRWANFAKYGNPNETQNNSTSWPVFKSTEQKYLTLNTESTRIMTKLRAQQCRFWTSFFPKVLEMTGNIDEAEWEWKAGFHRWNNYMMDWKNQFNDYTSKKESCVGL
# [28] = tested on: Candida albicans; assay: Antifungal activity against Candida albicans RCMB 05036 assessed as zone of inhibition; assay type: functional
# [29] = tested on: Syncephalastrum racemosum; assay: Antifungal activity against Syncephalastrum racemosum RCMB 05922 assessed as zone of inhibition; assay type: functional
# [30] = tested on: Geotrichum candidum; assay: Antifungal activity against Geotrichum candidum RCMB 05097 assessed as zone of inhibition; assay type: functional
# [31] = tested on: Aspergillus fumigatus; assay: Antifungal activity against Aspergillus fumigatus RCMB 02568 assessed as zone of inhibition; assay type: functional
# [32] = tested on: MCF7; assay: Antiproliferative activity against human MCF7 cells by MTT reduction assay; assay type: functional, cell-based
# [33] = tested on: T47D; assay: Antiproliferative activity against human T47D cells by MTT reduction assay; assay type: functional, cell-based
# [34] = tested on: MDA-MB-231; assay: Antiproliferative activity against human MDA-MB-231 cells by MTT reduction assay; assay type: functional, cell-based
# [35] = tested on: HeLa; assay: Cytotoxicity against human HeLa cells; assay type: functional, cell-based
structure (smiles),measurement,setting,value
Cc1ccc(C2C3CCCN3C3(C(=O)Nc4ccccc43)C2C(=O)c2ccc(-c3ccc(F)cc3F)cc2)cc1 (configuration not stated),MIC,[1],25 µg/mL
same,MIC,[2],25 µg/mL
same,MIC,[3],12.5 µg/mL
CC(C)=CC(=O)[C@H]1[C@H](c2ccc(Br)cc2)CN(C)[C@]12C(=O)Nc1ccc(C)cc12,pIC50,[4],5.24
same,pIC50,[5],4.68
CCOC1=Nc2ccc(Br)cc2/C1=C\C(=O)c1ccccc1O,zone of inhibition at 25 µg/mL,[6],11 mm
same,zone of inhibition at 25 µg/mL,[7],11 mm
COC1=CC(=O)C[C@@H](C)[C@]12Oc1c(Cl)c(OC)cc(OC)c1C2=O [GRISEOFULVIN],zone of inhibition at 25 µg/mL,[6],10 mm
same,zone of inhibition at 25 µg/mL,[7],10 mm
CC(C)=CC(=O)[C@H]1[C@H](c2ccc(Br)cc2)CN(C)[C@]12C(=O)Nc1ccc(Br)cc12,pIC50,[4],5.24
same,pIC50,[5],4.64
O=C1OCC2=C1C1(Nc3ccccc3N2)C(=O)N(Cc2ccccc2)c2ccccc21 (configuration not stated),pIC50,[8],5.64
same,pIC50,[9],5.96
same,pIC50,[10],5.66
same,pIC50,[11],5.89
CC(O)(CS(=O)(=O)c1ccc(F)cc1)C(=O)Nc1ccc(C#N)c(C(F)(F)F)c1 (configuration not stated) [BICALUTAMIDE],pIC50,[12],5.89
same,pIC50,[13],5.82
CCOC1=Nc2ccc(Br)cc2/C1=C\C(=O)c1cccc2ccccc12,diameter of the inhibition zone (DIZ),[14],6 mm
same,diameter of the inhibition zone (DIZ),[15],6 mm
O=C(O)c1cn(C2CC2)c2cc(N3CCNCC3)c(F)cc2c1=O [CIPROFLOXACIN],MIC,[16],25 µg/mL
same,MIC,[17],6.25 µg/mL
same,MIC,[18],32 µg/mL
same,MIC,[19],50 µg/mL
same,MIC,[20],32 µg/mL
Cc1nn(-c2ccccc2)c2c1C1(C(=O)Nc3ccc(Br)cc31)c1c(C)nn(-c3ccccc3)c1O2,MIC,[21],256 µg/mL
same,MIC,[22],64 µg/mL
COc1ccccc1C1C2CCCN2C2(C(=O)Nc3ccccc32)C1C(=O)c1ccc(-c2ccc(F)cc2F)cc1 (configuration not stated),MIC,[1],12.5 µg/mL
same,MIC,[2],12.5 µg/mL
same,MIC,[3],12.5 µg/mL
C[C@]12CC[C@H](O)CC1=CCC1C2CC[C@@]2(C)C1CC[C@@H]2C1=CC2(C(=O)N(Cc3ccc(Cl)c(Cl)c3)c3ccccc32)C(C#N)=C(N)N1 (some centres not stated),pIC50,[23],< 3.89
same,pIC50,[24],< 3.89
same,pIC50,[25],6.52
CCOC1=Nc2ccccc2/C1=C\C(=O)c1ccc([N+](=O)[O-])cc1,zone of inhibition at 25 µg/mL,[6],11 mm
same,zone of inhibition at 25 µg/mL,[7],11 mm
CCOC1=Nc2ccc(Br)cc2/C1=C\C(=O)c1ccccc1,diameter of the inhibition zone (DIZ),[14],6 mm
same,diameter of the inhibition zone (DIZ),[15],7 mm
COc1cc2c(cc1OC)C(=O)[C@]1(C2)[C@H](c2ccccc2OC)[C@H](Cc2c[nH]c3ccccc23)NC12C(=O)Nc1ccccc12 (some centres not stated),pIC50,[26],5.56
same,pIC50,[27],4.62
COc1cc2c(cc1OC)C(=O)[C@]1(C2)[C@H](c2ccc(C)cc2)[C@H](Cc2c[nH]c3ccccc23)NC12C(=O)Nc1ccccc12 (some centres not stated),pIC50,[26],4.85
same,pIC50,[27],5.65
O=C1NC(=S)S[C@]12C1CCCN1[C@@]1(C(=O)Nc3ccccc31)[C@H]2c1ccccc1 (some centres not stated),diameter of the inhibition zone (DIZ),[28],25 mm
same,diameter of the inhibition zone (DIZ),[29],14 mm
same,diameter of the inhibition zone (DIZ),[30],24 mm
same,diameter of the inhibition zone (DIZ),[31],16 mm
COc1cc([C@@H]2c3cc4c(cc3[C@@H](O[C@@H]3O[C@@H]5CO[C@@H](C)O[C@H]5[C@H](O)[C@H]3O)[C@H]3COC(=O)[C@H]23)OCO4)cc(OC)c1O [ETOPOSIDE],pIC50,[8],6.00
same,pIC50,[9],5.68
same,pIC50,[10],5.80
same,pIC50,[11],5.66
O=C(c1ccc(OCCN2CCC2)cc1)[C@H]1[C@H](c2ccccc2)C2CS[C@H](c3ccccc3)N2C12C(=O)Nc1ccc(Cl)cc12 (some centres not stated),pIC50,[32],5.43
same,pIC50,[33],5.33
same,pIC50,[34],5.38
CCN(CC)CCNC(=O)c1c(C)[nH]c(/C=C2\C(=O)Nc3ccc(F)cc32)c1C [SUNITINIB],pIC50,[35],< 4.52
